Laboratory results published in patent publication US20060258671A1, “Phenylpyridylpiperazine compounds” (priority 2005, published 2006).

Molecular target: T1, type H3 central histamine receptors (Mus musculus, UniProt P58406)
T1 construct: from tissue; host or cells: brain of living NMRI mice, treated in vivo; brains removed afterwards for the metabolite RIA
Experiment: Cerebral levels of Nτ-methylhistamine in the NMRI mouse (ex vivo, RIA)
Conditions: one hour after treatment
Description: The purpose of this study, which was carried out in accordance with the method of Taylor et al. (Biochem. Pharm., 1992, 44, 1261-1267), is to evaluate the ex vivo activity of the compounds of the present invention as antagonists of type H3 central histamine receptors. […] An increase in the cerebral concentrations of N^τ-methylhistamine indicates an increase in the turn-over of histamine by blockage of the type H3 central histamine receptors.
NMRI mice (18-20 g) are treated intraperitoneally or orally with compounds of the present invention or with their carrier (20 ml/kg). One hour after the pharmacological treatment, the animals are sacrificed, and their brains are removed, frozen in liquid nitrogen, weighed and homogenised in 0.1N HClO4 at 4° C. The homogenised products are centrifuged (15 000 g, 17 min, 4° C.). The supernatants are recovered and divided into aliquots. The aliquots are frozen in liquid nitrogen and stored at −80° C. until analysis.
Determination of the cerebral levels of N′-methylhistamine is carried out by radio-immunological assay (RIA) using an assay kit. The tissue levels of N^τ-methylhistamine are expressed in μg/g of fresh brain. […]

T1 sequence (P58406 whole entry): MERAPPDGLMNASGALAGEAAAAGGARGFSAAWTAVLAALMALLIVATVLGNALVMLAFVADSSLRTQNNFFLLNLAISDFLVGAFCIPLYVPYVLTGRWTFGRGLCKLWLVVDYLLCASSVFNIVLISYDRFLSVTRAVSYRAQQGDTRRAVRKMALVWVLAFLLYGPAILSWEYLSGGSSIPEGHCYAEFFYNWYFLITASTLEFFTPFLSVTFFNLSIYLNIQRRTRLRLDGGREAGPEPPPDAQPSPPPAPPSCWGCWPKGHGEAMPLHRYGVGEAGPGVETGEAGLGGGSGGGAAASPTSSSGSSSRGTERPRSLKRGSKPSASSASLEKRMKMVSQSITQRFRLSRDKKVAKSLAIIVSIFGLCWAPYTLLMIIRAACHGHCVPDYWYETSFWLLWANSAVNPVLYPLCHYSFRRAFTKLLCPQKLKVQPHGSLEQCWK

increase in the endogenous cerebral concentrations of Nτ-methylhistamine (10 mg/kg PO)	increase in the endogenous cerebral concentrations of Nτ-methylhistamine (3 mg/kg PO)	SMILES
162%	–	CS(=O)(=O)Nc1ccc(-c2ccc(N3CCN(C4CC4)CC3)nc2)cc1.Cl.Cl [Example 4, N-{4-[6-(4-Cyclopropylpiperazin-1-yl)pyridin-3-yl]phenyl}methane-sulphonamide dihydrochloride]
–	138%	CC(C)N1CCN(c2ccc(-c3ccc(NS(=O)(=O)C(C)C)cc3)cn2)CC1.Cl.Cl [Example 7, N-{4-[6(4-Isopropylpiperazin-1-yl)pyridin-3-yl]phenyl}propane-2-sulphonamide dihydrochloride]
